Among the data in patent US8802866B2, “Pyridinylimidazolone derivatives for the inhibition of PI3 kinases” (Merck Patent GmbH, priority 2009, dated 2014) are IC50 and Kd values, retold here.

Read-outs that look alike come from different tables or passages of the source. A value given as a limit tells only on which side of the number the result lay.

Assay [1] addresses DNA-PK protein complex (Homo sapiens, UniProt P78527). As to the kind of experiment: Biochemical DNA-PK assay (FlashPlate). Put shortly:
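Streptavidin-coated FlashPlate radiometric kinase assay, stopped with 200 mM EDTA, then wells washed with 0.9% NaCl and bound radioactivity counted. Blank (non-specific reaction) defined with a proprietary kinase inhibitor at 10 μM.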

The target of assay [2] is T1, mTOR (Homo sapiens, UniProt P42345).
T1 construct: purchased Millipore 14-770
The assay can be described thus: Biochemical mTOR assay (Millipore mTOR assay kit). As for the experimental part:
The biochemical mTOR assay was carried out by the method described in the Millipore mTOR assay kit (catalogue number 14-770).

Assay [3] has as its target PI3Kbeta (Homo sapiens, UniProt P42338). The assay can be described thus: Biochemical PI3Kbeta assay (neomycin SPA, lipid phosphorylation). To be noted: human recombinant GST-PI3K. A digest of the protocol:
(§1)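 Recombinant PI3K incubated with lipid substrate and radioactive ATP for 120 min at room temperature with gentle stirring, then stopped with neomycin-coated PVT-SPA beads, ATP 60 mM and EDTA 6.2 mM in PBS. After 60 min bead binding and centrifugation, radioactive Ptdlns(3)P counted by scintillation.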

In assay [4] the target is PI3Kalpha (Homo sapiens, UniProt P42336). The assay can be described thus: Biochemical PI3Kalpha assay (neomycin SPA, lipid phosphorylation). The conditions noted are these: human recombinant GST-PI3K. Put shortly: as §1
Assay [5] has as its system PI3K-dependent phosphorylation of PKB at Serin 473 in PC3 cells. The assay can be described thus: Cellular PI3K assay (P-S473-PKB Luminex assay in PC3 cells). To be noted: Homo sapiens, PC-3, 0.5 h, read-out: IC50 (cell). Type of assay: cell-based. Put shortly:
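PC3 cells were exposed for 30 min under serum-free conditions to 7 concentrations of compound, then lysed. Lysates were captured overnight at 4°C on anti-total-PKB Luminex beads and detected with P-S473-PKB antibody plus PE-labelled secondary.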

The target of assay [6] is recombinant PI3Kalpha (shortened form of the catalytic subunit) (Homo sapiens, UniProt P42336). As to the kind of experiment: BIACORE PI3K binding assay (SPR). The conditions noted are these: 25° C. A digest of the protocol:
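Contact time was 180 s and dissociation 240 s, in HEPES pH 7.40 buffer with 2% DMSO. Solvent-corrected, double-referenced data were fitted to a 1:1 model with mass transport.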
(SPR reads the build-up and loss of mass on a sensor chip optically.)

Where [7] appears, read: PC3 cells, 30 min, serum-free, P-S473-PKB.

Sequence of PI3Kbeta (P42338 whole entry): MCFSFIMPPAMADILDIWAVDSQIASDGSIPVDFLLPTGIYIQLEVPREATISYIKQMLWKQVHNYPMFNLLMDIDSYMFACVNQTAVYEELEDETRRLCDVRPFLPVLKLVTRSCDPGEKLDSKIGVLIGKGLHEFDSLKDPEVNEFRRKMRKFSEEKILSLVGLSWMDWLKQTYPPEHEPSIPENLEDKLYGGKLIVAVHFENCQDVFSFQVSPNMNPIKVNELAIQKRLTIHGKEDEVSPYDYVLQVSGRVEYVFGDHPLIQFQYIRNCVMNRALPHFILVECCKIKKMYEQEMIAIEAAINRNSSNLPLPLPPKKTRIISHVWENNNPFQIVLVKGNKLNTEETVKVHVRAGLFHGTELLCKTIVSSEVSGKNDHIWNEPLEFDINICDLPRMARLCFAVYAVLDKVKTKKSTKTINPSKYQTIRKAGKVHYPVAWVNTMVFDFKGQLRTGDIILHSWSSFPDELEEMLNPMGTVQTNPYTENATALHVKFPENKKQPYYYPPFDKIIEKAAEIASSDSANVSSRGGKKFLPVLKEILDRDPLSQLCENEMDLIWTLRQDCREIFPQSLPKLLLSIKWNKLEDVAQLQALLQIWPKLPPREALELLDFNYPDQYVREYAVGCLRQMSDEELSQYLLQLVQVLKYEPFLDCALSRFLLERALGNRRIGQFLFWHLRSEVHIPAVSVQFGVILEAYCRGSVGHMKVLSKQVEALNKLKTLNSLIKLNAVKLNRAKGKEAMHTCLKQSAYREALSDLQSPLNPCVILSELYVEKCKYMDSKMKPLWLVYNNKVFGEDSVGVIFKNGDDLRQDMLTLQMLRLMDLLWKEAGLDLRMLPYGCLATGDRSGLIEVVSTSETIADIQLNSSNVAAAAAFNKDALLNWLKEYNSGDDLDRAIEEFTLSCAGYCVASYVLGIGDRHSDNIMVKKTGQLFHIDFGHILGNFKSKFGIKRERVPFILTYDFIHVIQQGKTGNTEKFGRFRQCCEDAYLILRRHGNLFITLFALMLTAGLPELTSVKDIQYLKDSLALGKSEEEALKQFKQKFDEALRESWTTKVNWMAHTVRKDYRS
Sequence of PI3Kbeta (P27986 whole entry partner): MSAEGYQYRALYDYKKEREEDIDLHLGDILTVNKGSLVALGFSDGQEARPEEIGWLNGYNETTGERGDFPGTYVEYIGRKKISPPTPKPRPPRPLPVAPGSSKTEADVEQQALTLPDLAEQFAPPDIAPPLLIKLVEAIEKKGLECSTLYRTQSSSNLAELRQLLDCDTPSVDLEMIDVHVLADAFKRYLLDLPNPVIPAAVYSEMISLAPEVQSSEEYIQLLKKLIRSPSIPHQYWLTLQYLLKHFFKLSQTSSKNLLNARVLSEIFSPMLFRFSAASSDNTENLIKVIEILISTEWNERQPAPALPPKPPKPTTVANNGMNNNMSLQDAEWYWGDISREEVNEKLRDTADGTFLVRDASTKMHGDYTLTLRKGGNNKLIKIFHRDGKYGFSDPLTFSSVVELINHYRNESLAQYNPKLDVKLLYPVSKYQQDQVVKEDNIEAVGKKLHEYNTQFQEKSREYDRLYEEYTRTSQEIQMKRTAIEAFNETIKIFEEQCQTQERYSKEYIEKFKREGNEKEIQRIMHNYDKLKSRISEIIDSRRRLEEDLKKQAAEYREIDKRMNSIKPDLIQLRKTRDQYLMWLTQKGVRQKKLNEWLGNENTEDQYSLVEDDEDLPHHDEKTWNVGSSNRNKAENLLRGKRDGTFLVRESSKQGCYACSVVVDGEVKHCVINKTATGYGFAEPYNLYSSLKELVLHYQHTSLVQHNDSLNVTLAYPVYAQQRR
T1 sequence (P42345 1362-2549 limits assumed): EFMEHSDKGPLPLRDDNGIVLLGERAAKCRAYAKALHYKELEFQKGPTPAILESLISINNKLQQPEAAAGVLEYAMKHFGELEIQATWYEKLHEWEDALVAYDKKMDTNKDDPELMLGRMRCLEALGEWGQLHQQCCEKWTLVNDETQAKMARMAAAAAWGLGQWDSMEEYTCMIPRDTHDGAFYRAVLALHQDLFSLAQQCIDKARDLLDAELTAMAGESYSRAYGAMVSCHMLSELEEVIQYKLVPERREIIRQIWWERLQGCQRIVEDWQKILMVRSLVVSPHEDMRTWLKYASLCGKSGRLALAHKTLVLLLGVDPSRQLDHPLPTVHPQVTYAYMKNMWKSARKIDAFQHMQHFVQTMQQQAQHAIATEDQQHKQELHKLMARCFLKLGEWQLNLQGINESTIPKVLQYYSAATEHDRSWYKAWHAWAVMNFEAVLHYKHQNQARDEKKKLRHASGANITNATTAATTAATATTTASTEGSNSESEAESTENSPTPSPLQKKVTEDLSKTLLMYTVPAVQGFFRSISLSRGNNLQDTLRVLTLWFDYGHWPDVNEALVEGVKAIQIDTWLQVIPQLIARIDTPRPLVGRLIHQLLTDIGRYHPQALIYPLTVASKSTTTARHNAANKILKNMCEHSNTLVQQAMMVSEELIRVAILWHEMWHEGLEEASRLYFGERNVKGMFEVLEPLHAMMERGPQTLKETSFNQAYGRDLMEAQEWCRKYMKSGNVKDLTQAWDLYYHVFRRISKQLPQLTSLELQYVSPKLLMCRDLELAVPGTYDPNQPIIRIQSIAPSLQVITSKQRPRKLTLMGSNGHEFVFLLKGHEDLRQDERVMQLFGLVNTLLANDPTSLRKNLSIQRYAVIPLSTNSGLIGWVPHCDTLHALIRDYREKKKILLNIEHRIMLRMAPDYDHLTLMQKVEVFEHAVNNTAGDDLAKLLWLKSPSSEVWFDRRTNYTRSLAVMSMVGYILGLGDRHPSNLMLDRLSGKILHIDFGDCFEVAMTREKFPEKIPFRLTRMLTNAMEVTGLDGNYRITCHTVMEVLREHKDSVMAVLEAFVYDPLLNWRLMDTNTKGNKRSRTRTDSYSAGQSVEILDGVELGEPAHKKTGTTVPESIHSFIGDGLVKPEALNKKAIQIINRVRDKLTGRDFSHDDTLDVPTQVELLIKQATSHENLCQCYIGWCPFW
Sequence of PI3Kalpha (P42336 whole entry): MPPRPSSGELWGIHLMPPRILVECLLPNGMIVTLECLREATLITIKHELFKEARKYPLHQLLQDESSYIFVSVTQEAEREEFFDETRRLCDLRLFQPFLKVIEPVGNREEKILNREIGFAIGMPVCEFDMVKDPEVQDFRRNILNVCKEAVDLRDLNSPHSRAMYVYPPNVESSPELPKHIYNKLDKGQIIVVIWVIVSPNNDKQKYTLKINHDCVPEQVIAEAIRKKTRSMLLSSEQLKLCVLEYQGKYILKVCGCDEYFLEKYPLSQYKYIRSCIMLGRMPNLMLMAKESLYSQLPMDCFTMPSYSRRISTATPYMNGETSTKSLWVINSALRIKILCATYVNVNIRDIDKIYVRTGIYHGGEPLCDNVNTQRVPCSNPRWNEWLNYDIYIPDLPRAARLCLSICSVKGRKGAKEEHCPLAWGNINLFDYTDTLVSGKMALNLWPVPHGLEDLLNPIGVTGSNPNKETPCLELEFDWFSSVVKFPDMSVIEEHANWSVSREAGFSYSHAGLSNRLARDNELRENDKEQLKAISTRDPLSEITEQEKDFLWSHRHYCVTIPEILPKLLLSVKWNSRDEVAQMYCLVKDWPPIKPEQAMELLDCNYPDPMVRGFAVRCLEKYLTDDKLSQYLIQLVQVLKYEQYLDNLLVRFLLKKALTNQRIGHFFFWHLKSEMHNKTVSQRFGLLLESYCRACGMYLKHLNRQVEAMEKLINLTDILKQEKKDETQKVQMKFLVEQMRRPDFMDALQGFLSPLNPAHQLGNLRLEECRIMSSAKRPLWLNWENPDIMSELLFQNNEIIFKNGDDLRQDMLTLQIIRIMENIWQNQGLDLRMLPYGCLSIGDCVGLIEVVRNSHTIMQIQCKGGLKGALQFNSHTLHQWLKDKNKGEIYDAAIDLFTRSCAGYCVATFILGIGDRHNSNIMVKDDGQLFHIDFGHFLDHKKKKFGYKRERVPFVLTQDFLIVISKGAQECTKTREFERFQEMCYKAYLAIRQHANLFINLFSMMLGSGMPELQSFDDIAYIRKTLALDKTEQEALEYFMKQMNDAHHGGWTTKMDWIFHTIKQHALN
Sequence of PI3Kalpha (P27986 whole entry partner): as the sequence (P27986 whole entry partner) above
Sequence of recombinant PI3Kalpha (shortened form of the catalytic subunit) (P42336 151-1068 limits assumed): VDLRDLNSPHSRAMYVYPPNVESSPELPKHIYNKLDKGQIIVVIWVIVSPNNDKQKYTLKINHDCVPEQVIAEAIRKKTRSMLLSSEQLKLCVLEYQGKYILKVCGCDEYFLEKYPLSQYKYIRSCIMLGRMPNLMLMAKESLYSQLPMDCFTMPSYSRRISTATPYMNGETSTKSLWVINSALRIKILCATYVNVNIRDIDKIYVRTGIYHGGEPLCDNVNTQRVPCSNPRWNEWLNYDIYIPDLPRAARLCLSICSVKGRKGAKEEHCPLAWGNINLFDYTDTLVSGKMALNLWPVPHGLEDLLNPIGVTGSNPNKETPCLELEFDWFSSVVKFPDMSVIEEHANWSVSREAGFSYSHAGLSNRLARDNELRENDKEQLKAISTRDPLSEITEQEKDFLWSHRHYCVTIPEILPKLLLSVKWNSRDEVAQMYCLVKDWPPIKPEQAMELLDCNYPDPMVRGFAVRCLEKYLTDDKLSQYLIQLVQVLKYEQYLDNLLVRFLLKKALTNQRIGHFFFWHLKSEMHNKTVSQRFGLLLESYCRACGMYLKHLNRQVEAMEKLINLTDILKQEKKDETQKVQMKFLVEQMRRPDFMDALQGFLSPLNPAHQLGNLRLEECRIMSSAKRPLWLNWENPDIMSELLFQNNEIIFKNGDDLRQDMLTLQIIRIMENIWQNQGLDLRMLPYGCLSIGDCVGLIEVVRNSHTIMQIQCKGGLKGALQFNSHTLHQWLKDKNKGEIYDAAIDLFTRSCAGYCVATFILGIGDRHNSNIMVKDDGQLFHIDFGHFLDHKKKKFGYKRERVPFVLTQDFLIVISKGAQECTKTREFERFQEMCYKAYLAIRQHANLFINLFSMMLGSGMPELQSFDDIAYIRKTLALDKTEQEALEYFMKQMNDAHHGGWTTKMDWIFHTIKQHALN

Usually IC50 stands for the midpoint of a concentration-inhibition curve. The Kd is the concentration at which binding is half-saturated. On to `COc1cccc(-c2ccnc(-c3cn(C)c(=O)n3-c3ccc(C(C)(C)C#N)cc3)c2)c1` [Example A3, 2-(4-{5-[4-(3-Methoxyphenyl)pyridin-2-yl]-3-methyl-2-oxo-2,3-dihydroimidazol-1-yl}phenyl)-2-methylpropionitrile], for which the IC50 was 0.1 to 100 nM in assay [1]; over 10000 nM in assay [2]; over 10000 nM in assay [3]; 100 to 10000 nM in assay [4]; over 10000 nM in assay [5] (setting [7]). Besides, the Kd in assay [6] is 100 to 10000 nM.
In the case of `COc1ccc(-c2ccnc(-c3cn(C)c(=O)n3-c3ccc(N4CCNCC4)c(C(F)(F)F)c3)c2)cn1` [Example A20, 4-(6-Methoxy-[3,4′]bipyridinyl-2′-yl)-1-methyl-3-(4-piperazin-1-yl-3-trifluoro-methylphenyl)-1,3-dihydroimidazol-2-one], the IC50 in assay [1] lay within 0.1 to 100 nM; in assay [2], 100 to 10000 nM; in assay [3] it was 100 to 10000 nM; in assay [4], 100 to 10000 nM; in assay [5] (setting [7]), 100 to 10000 nM. Also, in assay [6], the Kd lay within 100 to 10000 nM.
As to `Cn1cc(-c2cc(-c3cnc4ccccc4c3)ccn2)n(-c2ccc(C(C)(C)C(=O)O)cc2)c1=O` [Example A22, 2-Methyl-2-{4-[3-methyl-2-oxo-5-(4-quinolin-3-ylpyridin-2-yl)-2,3-dihydroimidazol-1-yl]phenyl}propionic acid], the IC50 in assay [1] is 100 to 10000 nM; in assay [2], 100 to 10000 nM; in assay [3], over 10000 nM; in assay [4] it was 100 to 10000 nM; in assay [5] (setting [7]) it was over 10000 nM. Moreover, the Kd in assay [6] was in the range of 100 to 10000 nM.
For the molecule `Cn1cc(-c2cc(-c3ccnc4[nH]ccc34)ccn2)n(-c2ccc(C(C)(C)C#N)cc2)c1=O` [Example A23, 2-Methyl-2-(4-{3-methyl-2-oxo-5-[4-(1H-pyrrolo[2,3-b]pyridin-4-yl)pyridin-2-yl]-2,3-dihydroimidazol-1-yl}phenyl)propionitrile], the IC50 in assay [1] was 0.1 to 100 nM; in assay [2] it was 100 to 10000 nM; in assay [3], over 10000 nM; in assay [4] it was 100 to 10000 nM; in assay [5] (setting [7]), 100 to 10000 nM. The Kd in assay [6] was 100 to 10000 nM.
As for `CCn1cc(-c2cc(-c3cnc4[nH]ccc4c3)ccn2)n(-c2ccc(C(C)(C)C#N)cc2)c1=O` [Example A24, 2-(4-{3-Ethyl-2-oxo-5-[4-(1H-pyrrolo[2,3-b]pyridin-5-yl)pyridin-2-yl]-2,3-dihydro-imidazol-1-yl}phenyl)-2-methylpropionitrile], the IC50 in assay [1] is 0.1 to 100 nM; in assay [2], 0.1 to 100 nM; in assay [3], 100 to 10000 nM; in assay [4] it was 100 to 10000 nM; in assay [5] (setting [7]), 100 to 10000 nM. The Kd in assay [6] was in the range of 0.1 to 100 nM.
`Cn1cc(-c2cc(-c3cnc4[nH]c(C(F)(F)F)cc4c3)ccn2)n(-c2ccc(C(C)(C)C#N)cc2)c1=O` [Example A27, 2-Methyl-2-(4-{3-methyl-2-oxo-5-[4-(2-trifluoromethyl-1H-pyrrolo[2,3-b]pyridin-5-yl)pyridin-2-yl]-2,3-dihydroimidazol-1-yl}phenyl)propionitrile]: the IC50 in assay [1] was 0.1 to 100 nM; in assay [2] it was 0.1 to 100 nM; in assay [3], over 10000 nM; in assay [4], 100 to 10000 nM; in assay [5] (setting [7]), 100 to 10000 nM. Further, in assay [6], the Kd was in the range of 100 to 10000 nM.
On to `Cn1cc(-c2cc(-c3cnc4[nH]ncc4c3)ccn2)n(-c2ccc(N3CCNCC3)c(C(F)(F)F)c2)c1=O` [Example A46, 1-Methyl-3-(4-piperazin-1-yl-3-trifluoromethylphenyl)-4-[4-(1H-pyrazolo[3,4-b]-pyridin-5-yl)pyridin-2-yl]-1,3-dihydroimidazol-2-one], for which the IC50 was in the range of 0.1 to 100 nM in assay [1]; 100 to 10000 nM in assay [2]; 100 to 10000 nM in assay [3]; 0.1 to 100 nM in assay [4]; 100 to 10000 nM in assay [5] (setting [7]). For the same molecule, the Kd in assay [6] was in the range of 0.1 to 100 nM.
Turning to `CN1CCN(c2ccc(-n3c(-c4cc(-c5cnc6[nH]ccc6c5)ccn4)cn(C)c3=O)cc2)CC1` [Example A50, 1-Methyl-3-[4-(4-methylpiperazin-1-yl)phenyl]-4-[4-(1H-pyrrolo[2,3-b]pyridin-5-yl)pyridin-2-yl]-1,3-dihydroimidazol-2-one], the IC50 was in the range of 0.1 to 100 nM in assay [1]; 100 to 10000 nM in assay [2]; 100 to 10000 nM in assay [3]; 100 to 10000 nM in assay [4]; 100 to 10000 nM in assay [5] (setting [7]). Also, the Kd in assay [6] fell in the range of 0.1 to 100 nM.
For `Cn1cc(-c2cc(-c3ccc(N)cc3)ccn2)n(-c2ccc(N3CCNCC3)c(C(F)(F)F)c2)c1=O` [Example A60, 4-[4-(4-Aminophenyl)pyridin-2-yl]-1-methyl-3-(4-piperazin-1-yl-3-trifluoromethyl-phenyl)-1,3-dihydroimidazol-2-one], the IC50 in assay [1] is 0.1 to 100 nM; in assay [2], over 10000 nM; in assay [3] it was over 10000 nM; in assay [4], 100 to 10000 nM; in assay [5] (setting [7]), 100 to 10000 nM. The Kd in assay [6] lay within 100 to 10000 nM.
As for `Cn1cc(-c2cc(-c3cnc4[nH]ncc4c3)ccn2)n(-c2cccc(C#N)c2)c1=O` [Example A63, 3-{3-Methyl-2-oxo-5-[4-(1H-pyrazolo[3,4-b]pyridin-5-yl)pyridin-2-yl]-2,3-dihydro-imidazol-1-yl}benzonitrile], the IC50 in assay [1] was 0.1 to 100 nM; in assay [2], 0.1 to 100 nM; in assay [3] it was 100 to 10000 nM; in assay [4], 0.1 to 100 nM; in assay [5] (setting [7]), 100 to 10000 nM. For the same molecule, the dissociation constant (Kd) in assay [6] was in the range of 0.1 to 100 nM.
For the molecule `CC(=O)N1CCN(c2ccc(-n3c(-c4cc(-c5cnc6[nH]ccc6c5)ccn4)cn(C)c3=O)cc2C(F)(F)F)CC1` [Example A72, 3-[4-(4-Acetylpiperazin-1-yl)-3-trifluoromethylphenyl]-1-methyl-4-[4-(1H-pyrrolo[2,3-b]pyridin-5-yl)pyridin-2-yl]-1,3-dihydroimidazol-2-one], the IC50 in assay [1] was in the range of 0.1 to 100 nM; in assay [2], 100 to 10000 nM; in assay [3] it was 100 to 10000 nM; in assay [4] it was 100 to 10000 nM; in assay [5] (setting [7]) it was 0.1 to 100 nM. In addition, the Kd in assay [6] lay within 0.1 to 100 nM.
For the molecule `COc1cccc(-n2c(-c3cc(-c4cnc5[nH]ccc5c4)ccn3)cn(C)c2=O)c1` [Example A73, 3-(3-Methoxyphenyl)-1-methyl-4-[4-(1H-pyrrolo[2,3-b]pyridin-5-yl)pyridin-2-yl]-1,3-dihydroimidazol-2-one], the IC50 in assay [1] fell in the range of 0.1 to 100 nM; in assay [2], 0.1 to 100 nM; in assay [3], 100 to 10000 nM; in assay [4], 100 to 10000 nM; in assay [5] (setting [7]), 100 to 10000 nM. The Kd in assay [6] was 0.1 to 100 nM.
On to `CCN1CCN(c2ccc(-n3c(-c4cc(-c5cnc6[nH]ccc6c5)ccn4)cn(C)c3=O)cc2C(F)(F)F)CC1` [Example A77, 3-[4-(4-Ethylpiperazin-1-yl)-3-trifluoromethylphenyl]-1-methyl-4-[4-(1H-pyrrolo[2,3-b]pyridin-5-yl)pyridin-2-yl]-1,3-dihydroimidazol-2-one], for which the IC50 in assay [1] is 0.1 to 100 nM; in assay [2], over 10000 nM; in assay [3], 100 to 10000 nM; in assay [4] it was 100 to 10000 nM; in assay [5] (setting [7]) it was 0.1 to 100 nM.
On to `Cc1cccc(-n2c(-c3cc(-c4cnc5[nH]ccc5c4)ccn3)cn(C)c2=O)c1` [Example A79, 1-Methyl-4-[4-(1H-pyrrolo[2,3-b]pyridin-5-yl)pyridin-2-yl]-3-m-tolyl-1,3-dihydro-imidazol-2-one], for which the IC50 was 0.1 to 100 nM in assay [1]; 100 to 10000 nM in assay [2]; 100 to 10000 nM in assay [3]; 100 to 10000 nM in assay [4]; 100 to 10000 nM in assay [5] (setting [7]).
`CC(C)c1cccc(-n2c(-c3cc(-c4cnc5[nH]ccc5c4)ccn3)cn(C)c2=O)c1` [Example A80, 3-(3-Isopropylphenyl)-1-methyl-4-[4-(1H-pyrrolo[2,3-b]pyridin-5-yl)pyridin-2-yl]-1,3-dihydroimidazol-2-one]: the IC50 was 0.1 to 100 nM in assay [1]; over 10000 nM in assay [2]; 100 to 10000 nM in assay [3]; 100 to 10000 nM in assay [4]; 100 to 10000 nM in assay [5] (setting [7]).
Regarding `Cc1cc2cc(-c3ccnc(-c4cn(C)c(=O)n4-c4ccc(C(C)(C)C#N)cc4)c3)cnc2[nH]1` [Example A85, 2-Methyl-2-(4-{3-methyl-5-[4-(2-methyl-1H-pyrrolo[2,3-b]pyridin-5-yl)pyridin-2-yl]-2-oxo-2,3-dihydroimidazol-1-yl}phenyl)propionitrile], the IC50 fell in the range of 0.1 to 100 nM in assay [1]; 100 to 10000 nM in assay [2]; 100 to 10000 nM in assay [3]; 100 to 10000 nM in assay [4]; 100 to 10000 nM in assay [5]. The Kd in assay [6] was in the range of 0.1 to 100 nM.
Turning to `CN1CCN(c2ccc(-n3c(-c4cc(-c5cnc6[nH]c(C(C)(C)C)cc6c5)ccn4)cn(C)c3=O)cc2C(F)(F)F)CC1` [Example A86, 4-[4-(2-tert-Butyl-1H-pyrrolo[2,3-b]pyridin-5-yl)pyridin-2-yl]-1-methyl-3-[4-(4-methylpiperazin-1-yl)-3-trifluoromethylphenyl]-1,3-dihydroimidazol-2-one], the IC50 in assay [1] was 0.1 to 100 nM; in assay [2], 100 to 10000 nM; in assay [3] it was 100 to 10000 nM; in assay [4] it was 100 to 10000 nM; in assay [5] (setting [7]) it was 100 to 10000 nM. In assay [6], the Kd is 100 to 10000 nM.
